The assay deals with T1, VCAM-1 (Mus musculus, UniProt P29533).
T1 construct: from tissue; host or cells: liver of Balb/c mice in vivo, Con-A-induced hepatitis
T1 sequence (P29533 25-739): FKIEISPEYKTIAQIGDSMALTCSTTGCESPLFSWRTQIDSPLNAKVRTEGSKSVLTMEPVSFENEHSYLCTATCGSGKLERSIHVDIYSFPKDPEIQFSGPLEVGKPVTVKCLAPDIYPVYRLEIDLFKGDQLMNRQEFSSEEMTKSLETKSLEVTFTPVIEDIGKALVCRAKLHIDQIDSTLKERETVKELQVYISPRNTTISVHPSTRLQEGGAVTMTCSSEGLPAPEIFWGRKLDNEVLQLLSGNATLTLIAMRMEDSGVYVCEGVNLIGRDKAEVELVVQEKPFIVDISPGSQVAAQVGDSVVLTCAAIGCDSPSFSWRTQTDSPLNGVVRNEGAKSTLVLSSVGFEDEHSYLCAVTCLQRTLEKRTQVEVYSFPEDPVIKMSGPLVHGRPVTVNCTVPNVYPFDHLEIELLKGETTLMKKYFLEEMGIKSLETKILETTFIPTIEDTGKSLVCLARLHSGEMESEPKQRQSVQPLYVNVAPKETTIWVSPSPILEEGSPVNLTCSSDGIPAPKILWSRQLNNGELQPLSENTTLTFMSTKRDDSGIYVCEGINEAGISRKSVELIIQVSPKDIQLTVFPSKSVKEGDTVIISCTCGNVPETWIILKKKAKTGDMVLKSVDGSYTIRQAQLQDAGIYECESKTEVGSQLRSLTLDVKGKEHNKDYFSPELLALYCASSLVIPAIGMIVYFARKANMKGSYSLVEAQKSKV
The assay is described as follows: MRI in vivo on a model of Con-A-induced hepatitis in mice. To be noted: 100 μmol Gd/kg i.v., FIG. 3. The method, then:
Before the MRI acquisition, the mice are anesthetized with pentobarbital. All the experiments are carried out on a 200 MHz Bruker spectrometer (4.7 T) equipped with a vertical magnet and with a microimaging system.
The hepatitis is induced by i.v. injection of 20 mg/kg of Con-A in Balb/c mice weighing approximately 26 g. The literature reports that VCAM-1 is massively expressed in the liver between 4 and 8 hours after the injection of Con-A. The MRI protocol is the following: (1) the precontrast MRI begins 4h30 after the injection of Con-A; (2) the contrast product is injected at the dose of 100 μmol Gd/kg approximately 5 h after the injection of Con-A; (3) several post-contrast acquisitions are carried out for 1 h30 every 7 minutes. […]
For the two models, the SI values are measured in various regions of interest (at the level of the arterial wall of the abdominal aorta or whole liver) using the OSIRIS image analysis software. […] The SI value is measured on all the image slices where the arterial wall and the liver are visible. […] The increase in the signal/noise ratio (% ΔSNR) is calculated according to the following equation: % ΔSNR=[(SIpost/SDnoise)−(SIpre/SDnoise)]/[SIpre/SDnoise]×100 where SDnoise is the standard deviation of the noise measured on a region outside the animal.

With `O=C([O-])CN1CCN(CC(=O)[O-])CCN(CC(=O)O)CCN(CC(=O)[O-])CC1.[Gd+3]` [Gd-DOTA], the “change in signal/noise ratio (% ΔSNR) of the liver over time, hepatitis versus healthy mouse” value is recorded as “substantially identical”.
